Read-outs that look alike come from different tables or passages of the source.

The source of these data is publication PMC10925993, “6-Aryl-4-cycloamino-1,3,5-triazine-2-amines: synthesis, antileukemic activity, and 3D-QSAR modelling” (RSC Advances, 2024).

Data set [1] has as its system Jurkat T cells. Briefly: Inhibition of Jurkat T cell growth (GI50), MTS assay. It is filed as cell-based. Particulars: Homo sapiens. The protocol: These compounds were selected for further testing to estimate their 50% growth inhibition (GI50) value. Standard antileukemic drugs mercaptopurine, methotrexate and cytarabine were chosen as positive controls.
(§1) An MTS (3-(4,5-dimethylthiazol-2-yl)-5-(3-carboxymethoxyphenyl)-2-(4-sulfophenyl)-2H-tetrazolium inner salt) assay[20] was used to assess the leukemic cell viability. Jurkat T cells (human leukemic T cell, clone E6-1) from American Type Culture Collection (ATCC) were cultured in RPMI-1640 medium (Nacalai Tesque, Japan) supplemented with 10% v/v fetal bovine serum (FBS) (Biosera, France). The cells were maintained at 37 °C in a humidified 5% CO2 incubator (Thermo Fisher, USA). A total of 2 × 10^3 cells per 100 μL cell culture media were seeded into each well of a 96-well plate and incubated for 24 h. Then, tested compounds or reference drugs [6-mercaptopurine (Merck Millipore, Germany), methotrexate (Merck Millipore, Germany) and cytarabine (Merck Millipore, Germany)] were added, followed by incubation for 72 h. After that, a mixture of MTS (Sigma Aldrich, USA) and phenazine methosulfate (PMS) (Nacalai Tesque, Japan) were added to each well, followed by another incubation for 1 h to 4 h at 37 °C. The absorbance in each well was measured at 490 nm using a microplate reader (Tecan NanoQuant Infinite M200 Pro, Austria). The percentage of cell viability was estimated by comparing absorbance in wells with the treated and untreated (vehicle control) cells using the following formula: ODtreated/ODuntreated × 100%. All experiments were performed in triplicate and repeated in three independent experiments. The GI50 values were calculated using sigmoidal concentration-response curves generated by the GraphPad Prism 8 program.[21]

The subject of data set [2] is Jurkat T cells. Nature of the data set: Antiproliferative screening at 10 μM, MTS assay. It is filed as cell-based, human. The note with it: for viability at 10 µM: Homo sapiens, Jurkat T cells, 72 h after treatment, MTS, mean of three independent experiments, read-out: Cell viability (%); for Antiproliferative activity against Jurkat T cells (in words): screening concentration 10 μM, 72 h. The protocol: The Jurkat T cell line was chosen for its reliability as a model for chemotherapeutic studies, particularly in T-cell leukemia.[13]
as §1, with “Jurkat T cells (human leukemic T cell, clone E6-1) from American Type Culture Collection (ATCC) were cultured in RPMI-1640 medium (Nacalai Tesque, Japan) supplemented with 10% v/v fetal bovine serum (FBS) (Biosera, France). The cells were maintained at 37 °C in a humidified 5% CO2 incubator (Thermo Fisher, USA).” left out, “After that, a mixture of MTS (Sigma Aldrich, USA) and phenazine methosulfate (PMS) (Nacalai Tesque, Japan) were added to each well, followed by another incubation for 1 h to 4 h at 37 °C.” left out

Where [3] appears, read: GI50 against Jurkat T cells converted to negative logarithmic scale, read-out: Experimental pGI50 (converted).
Setting [4] is: concentration required to inhibit Jurkat T cell growth by 50%, 72 h, MTS, mean of three independent experiments, read-out: GI50 ± SEM.

In turn, `Nc1nc(-c2cccc(Oc3ccccc3)c2)nc(N2CCCCC2)n1` [9{2,13}, 4-Piperidino-6-(3-phenoxyphenyl)-1,3,5-triazine-2-amine] yielded a melting point of 125 to 126 °C. Also, in the data set with Jurkat T cells [1] (setting [3]), the GI50 was 6.92 µM. Besides, in the data set on Jurkat T cells [1] (setting [4]), the GI50 stood at 6.88 ± 1.22 µM. In addition, in the data set with Jurkat T cells [2], the viability at 10 µM was found to be 10% and the “Antiproliferative activity against Jurkat T cells (in words)” value is “effectively inhibited Jurkat T cell growth”.

`Nc1nc(-c2cccc(OCc3ccccc3)c2)nc(N2CCc3ccccc3C2)n1` [9{6,14}, 6-(3-(Benzyloxy)phenyl)-4-(3,4-dihydroisoquinolin-2(1H)-yl)-1,3,5-triazine-2-amine]: the melting point lay in the range of 143 to 144 °C. Also, the GI50 in the data set on Jurkat T cells [1] (setting [3]) is 6.61 µM. The GI50 in the data set on Jurkat T cells [1] (setting [4]) was found to be 6.54 ± 0.34 µM. For the same compound, the viability at 10 µM with Jurkat T cells [2] came to 23%.

`CN(C)c1ccc(-c2nc(N)nc(N3CCc4ccccc4C3)n2)cc1` [9{6,8}, 6-[4-(N,N-Dimethylamino)phenyl]-4-(3,4-dihydroisoquinolin-2(1H)-yl)-1,3,5-triazine-2-amine] registered a melting point of 201 to 202 °C. Also, the viability at 10 µM with Jurkat T cells [2] stood at 100%.

`COc1ccc(-c2nc(N)nc(N3CCCCC3)n2)cc1` [9{2,9}, 6-(4-Methoxyphenyl)-4-piperidino-1,3,5-triazine-2-amine] yielded a melting point of 178 to 179 °C. The viability at 10 µM in the data set on Jurkat T cells [2] was determined as 100%.

The compound `CN1CCN(c2nc(N)nc(-c3ccc(N(C)C)cc3)n2)CC1` [9{4,8}, 6-[4-(N,N-Dimethylamino)phenyl]-4-(4-methylpiperazino)-1,3,5-triazine-2-amine] displayed a melting point of 244 to 245 °C. In the data set on Jurkat T cells [2], the viability at 10 µM came to 99%.

Take `CC1CCN(c2nc(N)nc(-c3cccc([N+](=O)[O-])c3)n2)CC1` [9{3,10}, 4-(4-Methylpiperidino)-6-(3-nitrophenyl)-1,3,5-triazine-2-amine]: the melting point lay within 153 to 154 °C. The viability at 10 µM with Jurkat T cells [2] worked out at 84%.

On to `Nc1nc(-c2ccc(F)cc2)nc(N2CCCC2)n1` [9{1,3}, 6-(4-Fluorophenyl)-4-pyrrolidino-1,3,5-triazine-2-amine], for which the melting point fell in the range of 202 to 203 °C. Moreover, the viability at 10 µM in the data set with Jurkat T cells [2] came out at 97%.

With `COc1ccc(-c2nc(N)nc(N3CCCC3)n2)cc1` [9{1,9}, 6-(4-Methoxyphenyl)-4-pyrrolidino-1,3,5-triazine-2-amine], the melting point lay within 208 to 209 °C. The viability at 10 µM with Jurkat T cells [2] was 100%.

On to `Nc1nc(-c2ccc(Cl)cc2)nc(N2CCCCC2)n1` [9{2,4}, 6-(4-Chlorophenyl)-4-piperidino-1,3,5-triazine-2-amine], for which the melting point lay in the range of 177 to 178 °C. The viability at 10 µM in the data set with Jurkat T cells [2] was 83%.

With `Nc1nc(-c2ccc(OC(F)(F)F)cc2)nc(N2CCCC2)n1` [9{1,12}, 6-[4-(Trifluoromethoxy)phenyl]-4-pyrrolidino-1,3,5-triazine-2-amine], the melting point was 149 to 150 °C. Besides, the viability at 10 µM in the data set on Jurkat T cells [2] was 96%.

`Cc1ccc(-c2nc(N)nc(N3CCCC3)n2)cc1` [9{1,6}, 6-(4-Methylphenyl)-4-pyrrolidino-1,3,5-triazine-2-amine] came in with a melting point of 229 to 230 °C. Moreover, the viability at 10 µM in the data set on Jurkat T cells [2] was 100%.

The compound `COc1cc(-c2nc(N)nc(N3CCc4ccccc4C3)n2)cc(OC)c1OC` [9{6,17}, 6-(3,4,5-Trimethoxyphenyl)-4-(3,4-dihydroisoquinolin-2(1H)-yl)-1,3,5-triazine-2-amine] displayed a melting point of 198 to 199 °C. The viability at 10 µM in the data set with Jurkat T cells [2] was 96%.

Take `Nc1nc(-c2ccc(C(F)(F)F)cc2)nc(N2CCCC2)n1` [9{1,11}, 6-[4-(Trifluoromethyl)phenyl]-4-pyrrolidino-1,3,5-triazine-2-amine]: the melting point lay within 186 to 187 °C. The viability at 10 µM with Jurkat T cells [2] worked out at 78%.

Compound `Nc1nc(-c2ccc(OCc3ccccc3)cc2)nc(N2CCc3ccccc3C2)n1` [9{6,15}, 6-(4-(Benzyloxy)phenyl)-4-(3,4-dihydroisoquinolin-2(1H)-yl)-1,3,5-triazine-2-amine] returned a melting point of 143 to 144 °C. Besides, in the data set on Jurkat T cells [2], the viability at 10 µM is 59%.

Regarding `CN1CCN(c2nc(N)nc(-c3ccc(C(C)(C)C)cc3)n2)CC1` [9{4,7}, 6-[4-(tert-Butyl)phenyl]-4-(4-methylpiperazino)-1,3,5-triazine-2-amine], in the data set with Jurkat T cells [1] (setting [3]), the GI50 was 21.9 µM. The GI50 with Jurkat T cells [1] (setting [4]) is 21.8 ± 1.1 µM. Moreover, in the data set with Jurkat T cells [2], the viability at 10 µM was determined as 16% and the “Antiproliferative activity against Jurkat T cells (in words)” value is given as “effectively inhibited Jurkat T cell growth”.

For `Nc1nc(-c2ccc(OCc3ccccc3)cc2)nc(N2CCCC2)n1` [9{1,15}, 6-[4-(Benzyloxy)phenyl]-4-pyrrolidino-1,3,5-triazine-2-amine], the melting point lay in the range of 201 to 202 °C. Moreover, the viability at 10 µM in the data set on Jurkat T cells [2] amounted to 94%.

`Cc1ccc(-c2nc(N)nc(N3CCC(C)CC3)n2)cc1` [9{3,6}, 6-(4-Methylphenyl)-4-(4-methylpiperidino)-1,3,5-triazine-2-amine] returned a melting point greater than 300 °C. Further, the viability at 10 µM in the data set on Jurkat T cells [2] was found to be 100%.

As for `Nc1nc(-c2ccccc2)nc(N2CCc3ccccc3C2)n1` [9{6,1}], the values for the GI50 with Jurkat T cells [1] (setting [3]) and with Jurkat T cells [1] (setting [4]) were 1.95 µM and 1.95 ± 0.25 µM, respectively. Besides, the viability at 10 µM in the data set with Jurkat T cells [2] stood at 12%.

In turn, `COc1ccc(-c2nc(N)nc(N3CCN(C)CC3)n2)cc1OC` [9{4,16}, 6-(3,4-Dimethoxyphenyl)-4-(4-methylpiperazino)-1,3,5-triazine-2-amine] had a melting point of 223 to 224 °C. Further, in the data set on Jurkat T cells [2], the viability at 10 µM was found to be 100%.

In turn, `CC1CCN(c2nc(N)nc(-c3cccc(F)c3)n2)CC1` [9{3,2}, 6-(3-Fluorophenyl)-4-(4-methylpiperidino)-1,3,5-triazine-2-amine] yielded a melting point of 125 to 126 °C. The viability at 10 µM in the data set with Jurkat T cells [2] worked out at 61%.

Consider `S=c1[nH]cnc2nc[nH]c12` [Mercaptopurine, mercaptopurine, reference compound], for which, in the data set with Jurkat T cells [1] (setting [4]), the GI50 was found to be 11.1 ± 4.89 µM.

The compound `Cc1cccc(-c2nc(N)nc(N3CCCC3)n2)c1` [9{1,5}, 6-(3-Methylphenyl)-4-pyrrolidino-1,3,5-triazine-2-amine] yielded a melting point of 185 to 186 °C. In the data set on Jurkat T cells [2], the viability at 10 µM came out at 82%.

In the case of `Nc1nc(-c2cccs2)nc(N2CCCC2)n1` [9{1,18}, 4-Pyrrolidino-6-(2-thienyl)-1,3,5-triazine-2-amine], the melting point was in the range of 210 to 211 °C. The viability at 10 µM in the data set with Jurkat T cells [2] was 100%.

As to `COc1ccc(-c2nc(N)nc(N3CCCC3)n2)cc1OC` [9{1,16}, 6-(3,4-Dimethoxyphenyl)-4-pyrrolidino-1,3,5-triazine-2-amine], the melting point lay within 217 to 218 °C. The viability at 10 µM with Jurkat T cells [2] worked out at 95%.

Take `CC1CCN(c2nc(N)nc(-c3ccc(F)cc3)n2)CC1` [9{3,3}, 6-(4-Fluorophenyl)-4-(4-methylpiperidino)-1,3,5-triazine-2-amine]: the melting point is greater than 300 °C. In addition, the viability at 10 µM in the data set with Jurkat T cells [2] came to 86%.

Regarding `Nc1ccn([C@@H]2O[C@H](CO)[C@@H](O)[C@@H]2O)c(=O)n1` [Cytarabine, cytarabine, reference compound], in the data set with Jurkat T cells [1] (setting [4]), the GI50 was determined as 0.29 ± 0.01 µM.

The compound `Nc1nc(-c2cccc([N+](=O)[O-])c2)nc(N2CCCC2)n1` [9{1,10}, 6-(3-Nitrophenyl)-4-pyrrolidino-1,3,5-triazine-2-amine] displayed a melting point of 207 to 208 °C. The viability at 10 µM in the data set with Jurkat T cells [2] was 94%.

Turning to `COc1ccc(-c2nc(N)nc(N3CCC(C)CC3)n2)cc1` [9{3,9}, 6-(4-Methoxyphenyl)-4-(4-methylpiperidino)-1,3,5-triazine-2-amine], the melting point is 172 to 173 °C. Moreover, the viability at 10 µM with Jurkat T cells [2] was 100%.

The compound `CN1CCN(c2nc(N)nc(-c3ccc(OC(F)(F)F)cc3)n2)CC1` [9{4,12}, 6-[4-(Trifluoromethoxy)phenyl]-4-(4-methylpiperazino)-1,3,5-triazine-2-amine] came in with a melting point of 194 to 195 °C. In the data set with Jurkat T cells [2], the viability at 10 µM worked out at 100%.
